Measured values reported in ChEMBL document CHEMBL1201862, “PubChem BioAssay data set” (2004).
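Growth conditions: 96-well plates. Treatment: test compound, 48 hours, 5 concentrations. Analysis: linear interpolation between bracketing concentrations; unreached endpoints set to highest concentration. GI50 is the concentration that inhibits growth by half.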 Activity calls are given as the source filed them. Rule as the data show it: active = GI50 up to about 1.1 µM and inactive = higher.

Key:
Assay in all cases: inhibition of tumour cell growth, NCI panel, 48 h
RXF 393 = system: RXF 393
SK-OV-3 = system: SK-OV-3
NCI-H226 = system: NCI-H226
HCT-15 = system: HCT-15
SW-620 = system: SW-620
ACHN = system: ACHN
MOLT-4 = system: MOLT-4
UACC-62 = system: UACC-62
K562 = system: K562
MDA-N = system: MDA-N
NCI/ADR-RES = system: NCI/ADR-RES
SF-539 = system: SF-539
OVCAR-5 = system: OVCAR-5
HOP-92 = system: HOP-92
HCT-116 = system: HCT-116
OVCAR-8 = system: OVCAR-8
SK-MEL-5 = system: SK-MEL-5
OVCAR-4 = system: OVCAR-4
NCI-H522 = system: NCI-H522

Row | Compound | GI50 (RXF 393) | GI50 (SK-OV-3) | GI50 (NCI-H226) | GI50 (HCT-15) [µM] | GI50 (SW-620) | GI50 (ACHN) | GI50 (MOLT-4) | GI50 (UACC-62) | GI50 (K562) | GI50 (MDA-N) | GI50 (NCI/ADR-RES) | GI50 (SF-539) | GI50 (OVCAR-5) | GI50 (HOP-92) | GI50 (HCT-116) | GI50 (OVCAR-8) | GI50 (SK-MEL-5) | GI50 (OVCAR-4) | GI50 (NCI-H522)
1 | O=C1C=Cc2c(Cl)sc(Cl)c21 | 2.09 µM (inactive) | 15.2 µM (inactive) | 6.4 µM (inactive) | 1.51 | 0.845 µM (active) | 1.71 µM (inactive) | 0.12 µM (active) | 3.01 µM (inactive) | 0.767 µM (active) | 2.53 µM (inactive) | 2.03 µM (inactive) | 1.48 µM (inactive) | 4.3 µM (inactive) | 1.5 µM (inactive) | 0.752 µM (active) | 1.6 µM (inactive) | 2.11 µM (inactive) | 6.01 µM (inactive) | 
2 | Nc1ccc(-c2nc3ccccc3s2)cc1CO | > 100 µM (inactive) | > 100 µM (inactive) | < 0.01 µM (active) | 61.8 | > 100 µM (inactive) | 13.5 µM (inactive) | 16.5 µM (inactive) | 6.79 µM (inactive) | 6.05 µM (inactive) | > 86.3 µM (inactive) | > 79.8 µM (inactive) |  |  | > 54.8 µM (inactive) | 74.6 µM (inactive) | > 77.6 µM (inactive) | 49.4 µM (inactive) | > 39.2 µM (inactive) | 52.8 µM (inactive)
3 | Cc1nc2c3c(ncn2n1)Oc1c(c(-c2ccccc2)nn1-c1ccccc1)C3c1ccc(Cl)cc1 (stereo not drawn) | 72.3 µM (inactive) | 43.3 µM (inactive) | > 100 µM (inactive) | > 100 | > 100 µM (inactive) | 40.8 µM (inactive) | > 100 µM (inactive) | 53.6 µM (inactive) | > 100 µM (inactive) | > 100 µM (inactive) | > 100 µM (inactive) | 22.3 µM (inactive) | > 100 µM (inactive) | 98.4 µM (inactive) | > 100 µM (inactive) | 56.9 µM (inactive) |  | 22.1 µM (inactive) | 
4 | COc1ccc(Nc2c[nH]c(=O)[nH]c2=O)cc1 | > 100 µM (inactive) | > 100 µM (inactive) | > 100 µM (inactive) | > 100 | > 100 µM (inactive) | > 100 µM (inactive) | > 100 µM (inactive) | > 100 µM (inactive) | > 100 µM (inactive) | > 100 µM (inactive) | > 100 µM (inactive) | > 100 µM (inactive) |  | > 100 µM (inactive) | > 100 µM (inactive) | > 100 µM (inactive) | > 100 µM (inactive) | > 100 µM (inactive) | > 100 µM (inactive)
5 | O=C1C2=Cc3ccccc3CCN2c2ccccc21 | > 10 µM (inactive) |  | 13.9 µM (inactive) | 25.6 | 20.4 µM (inactive) | 17.3 µM (inactive) | 18.7 µM (inactive) | > 10 µM (inactive) | 12.7 µM (inactive) | > 10 µM (inactive) | 30.1 µM (inactive) | 16.4 µM (inactive) | 61.4 µM (inactive) | 28.8 µM (inactive) | 21.3 µM (inactive) | 23.6 µM (inactive) | 17.3 µM (inactive) | 33.7 µM (inactive) | 40.2 µM (inactive)
6 | CC1C2CC(CC23OCC(CCl)O3)C1(C)C (stereo not drawn) | > 100 µM (inactive) | > 100 µM (inactive) | > 100 µM (inactive) | > 100 | > 100 µM (inactive) | > 100 µM (inactive) | > 100 µM (inactive) | > 100 µM (inactive) | > 100 µM (inactive) | > 100 µM (inactive) | > 100 µM (inactive) | > 100 µM (inactive) |  | > 100 µM (inactive) | > 100 µM (inactive) | > 100 µM (inactive) | > 100 µM (inactive) | > 100 µM (inactive) | > 100 µM (inactive)
7 | CC(=O)C1=C(c2ccccc2)N(C2OC(CO)C(O)C(O)C2O)C(S)=C(C#N)C1c1ccc(Cl)cc1 (stereo not drawn) | 28.6 µM (inactive) |  | 20.7 µM (inactive) | 23 | 8.53 µM (inactive) | 29.7 µM (inactive) | 15.8 µM (inactive) | 16.4 µM (inactive) | 32.7 µM (inactive) | 25.8 µM (inactive) | 31.4 µM (inactive) | 18.2 µM (inactive) | 62.2 µM (inactive) | 19.7 µM (inactive) | 16 µM (inactive) | 33.5 µM (inactive) | 19.6 µM (inactive) | 29.6 µM (inactive) | 23.7 µM (inactive)
8 | FC(F)(F)c1cccnc1Sc1nc2ccccc2s1 | > 100 µM (inactive) |  | 2.67 µM (inactive) | > 100 | > 100 µM (inactive) | > 100 µM (inactive) | 52.1 µM (inactive) | > 100 µM (inactive) | > 100 µM (inactive) | > 100 µM (inactive) | > 100 µM (inactive) | > 100 µM (inactive) | 34.1 µM (inactive) | 16.3 µM (inactive) | > 100 µM (inactive) | > 100 µM (inactive) | > 100 µM (inactive) | > 100 µM (inactive) | 80 µM (inactive)
9 | CC1(CCCO)CCCCCC(C)(CCCO)C1=O (stereo not drawn) | > 100 µM (inactive) | > 100 µM (inactive) | > 100 µM (inactive) | > 100 | > 100 µM (inactive) | > 100 µM (inactive) | > 100 µM (inactive) | > 100 µM (inactive) | > 100 µM (inactive) | > 100 µM (inactive) | > 100 µM (inactive) |  | > 100 µM (inactive) | > 100 µM (inactive) | > 100 µM (inactive) | > 100 µM (inactive) | > 100 µM (inactive) | > 100 µM (inactive) | > 100 µM (inactive)
10 | COc1cc2c(cc1OC)C(=O)/C(=C/c1ccc([N+](=O)[O-])cc1)CC2 | > 10 µM (inactive) | > 10 µM (inactive) | > 10 µM (inactive) | > 10 | > 10 µM (inactive) | > 10 µM (inactive) | > 10 µM (inactive) | > 10 µM (inactive) | > 10 µM (inactive) | > 10 µM (inactive) | > 10 µM (inactive) | > 10 µM (inactive) | > 10 µM (inactive) | > 10 µM (inactive) | > 10 µM (inactive) | > 10 µM (inactive) | > 10 µM (inactive) | > 10 µM (inactive) | 
11 | O/N=C1\CCc2nonc2\C1=N/Nc1ccccc1 | > 100 µM (inactive) | > 100 µM (inactive) | 35.6 µM (inactive) | > 100 | > 100 µM (inactive) | 43.7 µM (inactive) | > 100 µM (inactive) | > 100 µM (inactive) | > 100 µM (inactive) | > 100 µM (inactive) | > 100 µM (inactive) | > 100 µM (inactive) | > 100 µM (inactive) | > 100 µM (inactive) | > 100 µM (inactive) | > 100 µM (inactive) | > 100 µM (inactive) | > 100 µM (inactive) | 
12 | COc1c(C)c(C/C=C(\C)CCCCO)c(OC)c2ccccc12 | 79.6 µM (inactive) | > 100 µM (inactive) |  | 31.6 | 57.3 µM (inactive) | 36.1 µM (inactive) | 21.2 µM (inactive) | 49.2 µM (inactive) | 29.4 µM (inactive) | 42.2 µM (inactive) | 42.6 µM (inactive) | 52.8 µM (inactive) | 83.8 µM (inactive) | 21.4 µM (inactive) | 28.9 µM (inactive) | 33.1 µM (inactive) | 16.9 µM (inactive) | 38.5 µM (inactive) | 19.1 µM (inactive)
13 | O=C(N/N=C\c1ccc([N+](=O)[O-])cc1)c1ccccc1Nc1ccccc1C(=O)N/N=C/c1ccc([N+](=O)[O-])cc1 | > 100 µM (inactive) | > 100 µM (inactive) | > 100 µM (inactive) | > 100 | > 100 µM (inactive) | > 100 µM (inactive) | 66.2 µM (inactive) | > 100 µM (inactive) | > 100 µM (inactive) | > 100 µM (inactive) | > 100 µM (inactive) |  | 76.4 µM (inactive) | > 100 µM (inactive) | > 100 µM (inactive) | > 100 µM (inactive) | > 100 µM (inactive) | > 100 µM (inactive) | 
14 | CCOC(CN(C)C(=O)Nc1cccc2ccccc12)OCC | > 10 µM (inactive) | > 10 µM (inactive) | > 10 µM (inactive) | > 10 | > 10 µM (inactive) | > 10 µM (inactive) | > 10 µM (inactive) | > 10 µM (inactive) | > 10 µM (inactive) | > 10 µM (inactive) | > 10 µM (inactive) | > 10 µM (inactive) |  | > 10 µM (inactive) | > 10 µM (inactive) | > 10 µM (inactive) | > 10 µM (inactive) | > 10 µM (inactive) | > 10 µM (inactive)
15 | O=C(CC1(O)CCCCC1)OC1CCCC1 | > 100 µM (inactive) | > 100 µM (inactive) | > 100 µM (inactive) | > 100 |  | > 100 µM (inactive) |  | > 100 µM (inactive) |  | > 100 µM (inactive) | > 100 µM (inactive) | > 100 µM (inactive) | > 100 µM (inactive) | > 100 µM (inactive) | > 100 µM (inactive) | > 100 µM (inactive) | > 100 µM (inactive) | > 100 µM (inactive) | > 100 µM (inactive)
16 | Cc1ccc(S(=O)(=O)NC(=O)NC(CO)C(=O)O)cc1 (stereo not drawn) | > 100 µM (inactive) | > 100 µM (inactive) |  | > 100 | > 100 µM (inactive) | > 100 µM (inactive) | > 100 µM (inactive) | > 100 µM (inactive) | > 100 µM (inactive) | > 100 µM (inactive) | > 100 µM (inactive) | > 100 µM (inactive) | > 100 µM (inactive) | > 100 µM (inactive) | > 100 µM (inactive) | > 100 µM (inactive) | > 100 µM (inactive) | > 100 µM (inactive) | > 100 µM (inactive)
